Source: PubChem BioAssay AID1259407 (Chemical Carcinogenesis Research Information System (CCRIS), 2018)
Active and inactive are the calls of the source. No rule for the calls is given here.

Test system: CCRIS mutagenicity, Ames/micronucleus/aberration tests
Test: CCRIS mutagenicity studies
[1] = Test System: AMES SALMONELLA TYPHIMURIUM, Strain/Indicator: TA98, Metabolic Activation: NONE, Method: STANDARD PLATE
[2] = Test System: AMES SALMONELLA TYPHIMURIUM, Strain/Indicator: TA100, Metabolic Activation: NONE, Method: STANDARD PLATE
[3] = Test System: AMES SALMONELLA TYPHIMURIUM, Strain/Indicator: TA1535, Metabolic Activation: NONE, Method: PREINCUBATION
[4] = Test System: AMES SALMONELLA TYPHIMURIUM, Strain/Indicator: TA1537, Metabolic Activation: NONE, Method: PREINCUBATION

Measured: mutagenic call

Cc1cc(-c2ccc(N=Nc3cc(S(=O)(=O)O)c4ccccc4c3N)c(C)c2)ccc1N=Nc1cc(S(=O)(=O)O)c2ccccc2c1N
inactive: Test System: AMES SALMONELLA TYPHIMURIUM, Strain/Indicator: TA98, Metabolic Activation: HAMSTER, LIVER, S-9, AROCLOR 1254 (10%), Method: PREINCUBATION inactive; negative | Test System: AMES SALMONELLA TYPHIMURIUM, Strain/Indicator: TA98, Metabolic Activation: HAMSTER, LIVER, S-9, AROCLOR 1254, Method: STANDARD PLATE inactive; negative | Test System: AMES SALMONELLA TYPHIMURIUM, Strain/Indicator: TA98, Metabolic Activation: NONE, Method: PREINCUBATION inactive; negative | [1] inactive; negative | Test System: AMES SALMONELLA TYPHIMURIUM, Strain/Indicator: TA98, Metabolic Activation: RAT, LIVER, S-9, AROCLOR 1254 (10%), Method: PREINCUBATION inactive; negative | Test System: AMES SALMONELLA TYPHIMURIUM, Strain/Indicator: TA98, Metabolic Activation: RAT, LIVER, S-9, AROCLOR 1254, Method: STANDARD PLATE inactive; negative | Test System: AMES SALMONELLA TYPHIMURIUM, Strain/Indicator: TA100, Metabolic Activation: HAMSTER, LIVER, S-9, AROCLOR 1254 (10%), Method: PREINCUBATION inactive; negative | Test System: AMES SALMONELLA TYPHIMURIUM, Strain/Indicator: TA100, Metabolic Activation: HAMSTER, LIVER, S-9, AROCLOR 1254, Method: STANDARD PLATE inactive; negative | Test System: AMES SALMONELLA TYPHIMURIUM, Strain/Indicator: TA100, Metabolic Activation: NONE, Method: PREINCUBATION inactive; negative | [2] inactive; negative | Test System: AMES SALMONELLA TYPHIMURIUM, Strain/Indicator: TA100, Metabolic Activation: RAT, LIVER, S-9, AROCLOR 1254 (10%), Method: PREINCUBATION inactive; negative | Test System: AMES SALMONELLA TYPHIMURIUM, Strain/Indicator: TA100, Metabolic Activation: RAT, LIVER, S-9, AROCLOR 1254, Method: STANDARD PLATE inactive; negative | Test System: AMES SALMONELLA TYPHIMURIUM, Strain/Indicator: TA1535, Metabolic Activation: HAMSTER, LIVER, S-9, AROCLOR 1254 (10%), Method: PREINCUBATION inactive; negative | Test System: AMES SALMONELLA TYPHIMURIUM, Strain/Indicator: TA1535, Metabolic Activation: HAMSTER, LIVER, S-9, AROCLOR 1254, Method: STANDARD PLATE inactive; negative | [3] inactive; negative | Test System: AMES SALMONELLA TYPHIMURIUM, Strain/Indicator: TA1535, Metabolic Activation: NONE, Method: STANDARD PLATE inactive; negative | Test System: AMES SALMONELLA TYPHIMURIUM, Strain/Indicator: TA1535, Metabolic Activation: RAT, LIVER, S-9, AROCLOR 1254 (10%), Method: PREINCUBATION inactive; negative | Test System: AMES SALMONELLA TYPHIMURIUM, Strain/Indicator: TA1535, Metabolic Activation: RAT, LIVER, S-9, AROCLOR 1254, Method: STANDARD PLATE inactive; negative | Test System: AMES SALMONELLA TYPHIMURIUM, Strain/Indicator: TA1537, Metabolic Activation: HAMSTER, LIVER, S-9, AROCLOR 1254 (10%), Method: PREINCUBATION inactive; negative | Test System: AMES SALMONELLA TYPHIMURIUM, Strain/Indicator: TA1537, Metabolic Activation: HAMSTER, LIVER, S-9, AROCLOR 1254, Method: STANDARD PLATE inactive; negative | [4] inactive; negative | Test System: AMES SALMONELLA TYPHIMURIUM, Strain/Indicator: TA1537, Metabolic Activation: NONE, Method: STANDARD PLATE inactive; negative | Test System: AMES SALMONELLA TYPHIMURIUM, Strain/Indicator: TA1537, Metabolic Activation: RAT, LIVER, S-9, AROCLOR 1254 (10%), Method: PREINCUBATION inactive; negative | Test System: AMES SALMONELLA TYPHIMURIUM, Strain/Indicator: TA1537, Metabolic Activation: RAT, LIVER, S-9, AROCLOR 1254, Method: STANDARD PLATE inactive; negative | Test System: AMES SALMONELLA TYPHIMURIUM, Strain/Indicator: TA1538, Metabolic Activation: HAMSTER, LIVER, S-9, AROCLOR 1254, Method: STANDARD PLATE inactive; negative | Test System: AMES SALMONELLA TYPHIMURIUM, Strain/Indicator: TA1538, Metabolic Activation: HAMSTER, LIVER, S-9, Method: STANDARD PLATE inactive; negative | Test System: AMES SALMONELLA TYPHIMURIUM, Strain/Indicator: TA1538, Metabolic Activation: NONE, Method: STANDARD PLATE inactive; negative | Test System: AMES SALMONELLA TYPHIMURIUM, Strain/Indicator: TA1538, Metabolic Activation: RAT, LIVER, S-9, AROCLOR 1254, Method: STANDARD PLATE inactive; negative | Test System: MOUSE LYMPHOMA, Strain/Indicator: L5178Y (TK+/TK-), Metabolic Activation: NONE, Method: SUSPENSION/PLATE inactive; negative. reevaluation of results: negative | Test System: MOUSE LYMPHOMA, Strain/Indicator: L5178Y (TK+/TK-), Metabolic Activation: RAT, LIVER, S-9, AROCLOR 1254, Method: SUSPENSION/PLATE inactive; negative. reevaluation of results: negative
active: Test System: AMES SALMONELLA TYPHIMURIUM, Strain/Indicator: SV50, Metabolic Activation: HAMSTER, LIVER, S-9, Method: PREINCUBATION (PRIVAL METHOD) active; positive | Test System: AMES SALMONELLA TYPHIMURIUM, Strain/Indicator: SV50, Metabolic Activation: RAT, LIVER, S-9, AROCLOR 1254, Method: PREINCUBATION (PRIVAL METHOD) active; positive | Test System: AMES SALMONELLA TYPHIMURIUM, Strain/Indicator: TA98, Metabolic Activation: HAMSTER, LIVER, S-9, Method: PREINCUBATION (PRIVAL METHOD) active; positive | Test System: AMES SALMONELLA TYPHIMURIUM, Strain/Indicator: TA98, Metabolic Activation: RAT, LIVER, S-9, AROCLOR 1254, Method: PREINCUBATION (PRIVAL METHOD) active; positive

O=Nc1ccccc1-c1ccccc1
inactive: [1] inactive; negative
active: [2] active; positive

Nc1ccc2nc3ccccc3cc2c1
active: Test System: AMES SALMONELLA TYPHIMURIUM, Strain/Indicator: TA1535, Metabolic Activation: RAT, LIVER, S-9, TETRACHLOROBIPHENYL, Method: PREINCUBATION active; positive | [4] active; positive | Test System: AMES SALMONELLA TYPHIMURIUM, Strain/Indicator: TA1537, Metabolic Activation: RAT, LIVER, S-9, TETRACHLOROBIPHENYL, Method: PREINCUBATION active; positive | Test System: AMES SALMONELLA TYPHIMURIUM, Strain/Indicator: TA1538, Metabolic Activation: RAT, LIVER, S-9, TETRACHLOROBIPHENYL, Method: PREINCUBATION active; positive | Test System: AMES SALMONELLA TYPHIMURIUM, Strain/Indicator: TA1977, Metabolic Activation: RAT, LIVER, S-9, TETRACHLOROBIPHENYL, Method: PREINCUBATION active; positive | Test System: AMES SALMONELLA TYPHIMURIUM, Strain/Indicator: TA1978, Metabolic Activation: RAT, LIVER, S-9, TETRACHLOROBIPHENYL, Method: PREINCUBATION active; positive
inactive: [3] inactive; negative | Test System: AMES SALMONELLA TYPHIMURIUM, Strain/Indicator: TA1538, Metabolic Activation: NONE, Method: PREINCUBATION inactive; negative | Test System: AMES SALMONELLA TYPHIMURIUM, Strain/Indicator: TA1975, Metabolic Activation: RAT, LIVER, S-9, TETRACHLOROBIPHENYL, Method: PREINCUBATION inactive; negative | Test System: AMES SALMONELLA TYPHIMURIUM, Strain/Indicator: TA1977, Metabolic Activation: NONE, Method: PREINCUBATION inactive; negative
